Test results reported in PubChem BioAssay AID256 (DTP/NCI, 2004).
Where “and” joins values, the source holds several entries; their conditions need not be identical. Identical values can stand only once. Inconclusive results and toxic doses are left out. Rule for the calls: active = survival T/C of 150% or more; inactive = T/C below 125% in these data.

System: CD2F1 mice, L1210 leukemia ip, survival T/C
Assay: NCI In Vivo Anticancer Drug Screen. Data for tumor model L1210 Leukemia (intraperitoneal) in CD2F1 (CDF1) mice
Details: higher = longer survival
Method in brief: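 Ratio T/C, where T is the treated-group value and C the vehicle-dosed control value, from mice implanted with a transplantable tumor.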

[1] = endpoint: mean survival time, dose: 100.0 mg/kg/injection, schedule: Q04DX003 (ip), vehicle: saline with Tween-80
[2] = endpoint: mean survival time, dose: 200.0 mg/kg/injection, schedule: Q04DX003 (ip), vehicle: saline with Tween-80
[3] = endpoint: mean survival time, dose: 400.0 mg/kg/injection, schedule: Q04DX003 (ip), vehicle: saline with Tween-80
[4] = endpoint: mean survival time, dose: 100.0 mg/kg/injection, schedule: Q01DX009 (ip), vehicle: saline with Tween-80
[5] = endpoint: mean survival time, dose: 200.0 mg/kg/injection, schedule: Q01DX009 (ip), vehicle: saline with Tween-80

Measured: T/C

O=C1c2cccc3cc([N+](=O)[O-])cc(c23)C(=O)N1CCN1CCCC1
inactive: endpoint: mean survival time, dose: 1.5 mg/kg/injection, schedule: Q01DX009 (ip), vehicle: saline with Tween-80 107 % of control | endpoint: mean survival time, dose: 1.5 mg/kg/injection, schedule: Q01DX009 (ip), vehicle: saline 100 % of control | endpoint: mean survival time, dose: 3.0 mg/kg/injection, schedule: Q01DX009 (ip), vehicle: saline with Tween-80 113 % of control | endpoint: mean survival time, dose: 3.0 mg/kg/injection, schedule: Q01DX009 (ip), vehicle: saline 100 % of control | endpoint: mean survival time, dose: 6.0 mg/kg/injection, schedule: Q01DX009 (ip), vehicle: saline 113 % of control | endpoint: mean survival time, dose: 12.0 mg/kg/injection, schedule: Q01DX009 (ip), vehicle: saline 115 % of control | endpoint: mean survival time, dose: 24.0 mg/kg/injection, schedule: Q01DX009 (ip), vehicle: saline with Tween-80 91 % of control | endpoint: mean survival time, dose: 24.0 mg/kg/injection, schedule: Q01DX009 (ip), vehicle: saline 111 % of control | endpoint: median survival time, dose: 1.56 mg/kg/injection, schedule: Q01DX009 (ip), vehicle: saline with Tween-80 96 % of control | endpoint: median survival time, dose: 3.12 mg/kg/injection, schedule: Q01DX009 (ip), vehicle: saline with Tween-80 101 % of control and 107 % of control | endpoint: median survival time, dose: 6.25 mg/kg/injection, schedule: Q01DX009 (ip), vehicle: saline with Tween-80 104 % of control and 107 % of control | endpoint: median survival time, dose: 12.5 mg/kg/injection, schedule: Q01DX009 (ip), vehicle: saline with Tween-80 117 % of control and 119 % of control | endpoint: median survival time, dose: 50.0 mg/kg/injection, schedule: Q01DX009 (ip), vehicle: saline with Tween-80 86 % of control

O=c1[nH]nc(OCc2ccccc2)c2ncn(Cc3ccccc3)c12
inactive: endpoint: mean survival time, dose: 12.5 mg/kg/injection, schedule: Q01DX005 (ip), vehicle: other 91 % of control | endpoint: mean survival time, dose: 100.0 mg/kg/injection, schedule: Q01DX005 (ip), vehicle: other 88 % of control | endpoint: mean survival time, dose: 200.0 mg/kg/injection, schedule: Q01DX005 (ip), vehicle: other 86 % of control

Clc1ccc2c(c1)Nc1cc(Cl)ccc1C=C2
inactive: [1] 98 % of control | [2] 93 % of control | [3] 87 % of control

COC(=O)NC(S(=O)(=O)O)S(=O)(=O)O
inactive: endpoint: mean survival time, dose: 100.0 mg/kg/injection, schedule: Q01DX001 (ip), vehicle: saline 108 % of control | endpoint: mean survival time, dose: 200.0 mg/kg/injection, schedule: Q01DX001 (ip), vehicle: saline 101 % of control | endpoint: mean survival time, dose: 400.0 mg/kg/injection, schedule: Q01DX001 (ip), vehicle: saline 108 % of control

CC(O)CN1CCOCC1 (centres undefined)
inactive: [4] 101 % of control | [5] 105 % of control | endpoint: mean survival time, dose: 400.0 mg/kg/injection, schedule: Q01DX009 (ip), vehicle: saline with Tween-80 100 % of control

CC1=CCCN(CCc2c[nH]c3ccccc23)C1
inactive: endpoint: mean survival time, dose: 50.0 mg/kg/injection, schedule: Q04DX003 (ip), vehicle: saline with Tween-80 97 % of control | endpoint: mean survival time, dose: 100.0 mg/kg/injection, schedule: Q01DX001 (ip), vehicle: saline with Tween-80 90 % of control | [1] 101 % of control | endpoint: mean survival time, dose: 200.0 mg/kg/injection, schedule: Q01DX001 (ip), vehicle: saline with Tween-80 90 % of control

C=C1C(=O)OC2/C=C(\C)CC/C=C(/C)CC(OC(=O)/C(=C/CO)CO)C12 (centres undefined)
inactive: endpoint: mean survival time, dose: 10.0 mg/kg/injection, schedule: Q01DX009 (ip), vehicle: Klucel (hydroxypropylcellulose) (HPC) 96 % of control | endpoint: mean survival time, dose: 20.0 mg/kg/injection, schedule: Q01DX009 (ip), vehicle: Klucel (hydroxypropylcellulose) (HPC) 100 % of control | endpoint: mean survival time, dose: 40.0 mg/kg/injection, schedule: Q01DX009 (ip), vehicle: Klucel (hydroxypropylcellulose) (HPC) 95 % of control

Fc1ccc(Nc2c3ccccc3nc3ccccc23)cc1
inactive: [4] 96 % of control

CNc1cc([N+](=O)[O-])ccc1Br
inactive: endpoint: mean survival time, dose: 100.0 mg/kg/injection, schedule: Q04DX002 (ip), vehicle: other 91 % of control | endpoint: mean survival time, dose: 200.0 mg/kg/injection, schedule: Q04DX002 (ip), vehicle: other 100 % of control | endpoint: mean survival time, dose: 400.0 mg/kg/injection, schedule: Q04DX002 (ip), vehicle: other 95 % of control

CC1(C)C2(C)CC12C (centres undefined)
inactive: endpoint: mean survival time, dose: 1.25 mg/kg/injection, schedule: Q04DX002 (ip), vehicle: saline with Tween-80 97 % of control | endpoint: mean survival time, dose: 2.5 mg/kg/injection, schedule: Q04DX002 (ip), vehicle: saline with Tween-80 97 % of control | endpoint: mean survival time, dose: 5.0 mg/kg/injection, schedule: Q04DX002 (ip), vehicle: saline with Tween-80 97 % of control | endpoint: mean survival time, dose: 10.0 mg/kg/injection, schedule: Q04DX002 (ip), vehicle: saline with Tween-80 97 % of control

O/N=C/c1ccc[nH]1
inactive: [1] 96 % of control | [2] 96 % of control | [3] 96 % of control

O=C(COc1cccc(Cl)c1)NCc1ccccc1NC(=O)CBr
inactive: endpoint: mean survival time, dose: 2.35 mg/kg/injection, schedule: Q01DX001 (ip), vehicle: saline with Tween-80 101 % of control | endpoint: mean survival time, dose: 4.7 mg/kg/injection, schedule: Q01DX001 (ip), vehicle: saline with Tween-80 97 % of control | endpoint: mean survival time, dose: 9.4 mg/kg/injection, schedule: Q01DX001 (ip), vehicle: saline with Tween-80 92 % of control

COc1cc(Cl)ccc1C
inactive: endpoint: mean survival time, dose: 12.5 mg/kg/injection, schedule: Q01DX009 (ip), vehicle: saline with Tween-80 97 % of control | endpoint: mean survival time, dose: 25.0 mg/kg/injection, schedule: Q01DX009 (ip), vehicle: saline with Tween-80 97 % of control | endpoint: mean survival time, dose: 50.0 mg/kg/injection, schedule: Q01DX009 (ip), vehicle: saline with Tween-80 95 % of control | [4] 100 % of control | [5] 91 % of control

O=C(CBr)CC(O)(C(F)(F)F)C(F)(F)F
inactive: endpoint: mean survival time, dose: 12.5 mg/kg/injection, schedule: Q04DX003 (ip), vehicle: saline 98 % of control

CC(C)=CBr
inactive: endpoint: mean survival time, dose: 100.0 mg/kg/injection, schedule: Q04DX003 (ip), vehicle: acetone 103 % of control | endpoint: mean survival time, dose: 200.0 mg/kg/injection, schedule: Q04DX003 (ip), vehicle: acetone 94 % of control

O=[N+]([O-])c1ccc(N=Nc2ccc(N3CC3)c([N+](=O)[O-])c2)cc1
inactive: endpoint: mean survival time, dose: 65.0 mg/kg/injection, schedule: Q01DX001 (ip), vehicle: Klucel (hydroxypropylcellulose) (HPC) 96 % of control | endpoint: mean survival time, dose: 130.0 mg/kg/injection, schedule: Q01DX001 (ip), vehicle: Klucel (hydroxypropylcellulose) (HPC) 88 % of control | endpoint: mean survival time, dose: 260.0 mg/kg/injection, schedule: Q01DX001 (ip), vehicle: Klucel (hydroxypropylcellulose) (HPC) 89 % of control

CCOC(=O)/C(=C/[N-]c1ccccc1[N-]/C=C(\C(C)=O)C(=O)OCC)C(C)=O.[Pt+2]
inactive: endpoint: median survival time, dose: 10.0 mg/kg/injection, schedule: Q04DX003 (ip), vehicle: saline with Tween-80 98 % of control | endpoint: median survival time, dose: 20.0 mg/kg/injection, schedule: Q04DX003 (ip), vehicle: saline with Tween-80 96 % of control | endpoint: median survival time, dose: 40.0 mg/kg/injection, schedule: Q04DX003 (ip), vehicle: saline with Tween-80 89 % of control | endpoint: median survival time, dose: 50.0 mg/kg/injection, schedule: Q04DX003 (ip), vehicle: saline with Tween-80 96 % of control | endpoint: median survival time, dose: 80.0 mg/kg/injection, schedule: Q04DX003 (ip), vehicle: saline with Tween-80 101 % of control | endpoint: median survival time, dose: 100.0 mg/kg/injection, schedule: Q04DX003 (ip), vehicle: saline with Tween-80 97 % of control | endpoint: median survival time, dose: 200.0 mg/kg/injection, schedule: Q04DX003 (ip), vehicle: saline with Tween-80 101 % of control

CN(C)N=Nc1ccccc1C(=O)NCC(F)(F)F
inactive: endpoint: mean survival time, dose: 18.75 mg/kg/injection, schedule: Q01DX009 (ip), vehicle: Klucel (hydroxypropylcellulose) (HPC) 96 % of control and 106 % of control | endpoint: mean survival time, dose: 37.5 mg/kg/injection, schedule: Q01DX009 (ip), vehicle: Klucel (hydroxypropylcellulose) (HPC) 93 % of control and 106 % of control | endpoint: mean survival time, dose: 75.0 mg/kg/injection, schedule: Q01DX009 (ip), vehicle: Klucel (hydroxypropylcellulose) (HPC) 96 % of control and 100 % of control | endpoint: mean survival time, dose: 150.0 mg/kg/injection, schedule: Q01DX009 (ip), vehicle: Klucel (hydroxypropylcellulose) (HPC) 100 % of control and 102 % of control | endpoint: mean survival time, dose: 300.0 mg/kg/injection, schedule: Q01DX009 (ip), vehicle: Klucel (hydroxypropylcellulose) (HPC) 100 % of control and 103 % of control
